In patent US9670203B2 (BeiGene, LTD., priority 2013, dated 2017):
Like-named read-outs stand apart in the source and are kept apart here.

Tests used:
B-Raf (V600E) = B-Raf (V600E) (Homo sapiens (Human), UniProt P15056, V600E); assay: Raf IC50 assay, time-resolved fluorescence energy transfer, B-Raf (V600E); type: biochemical; conditions: 0.1 mM ATP; read-out: IC50 (nM) B_Raf^V600E
Protocol: The enzyme was incubated with the compounds at room temperature for 60 minutes and the reactions were initiated by the addition of ATP and GST-MEK1. After reaction at room temperature for 60 minutes, an equal volume of stop/detection solution was added according to the manufacture's instruction (CisBio Bioassays). […] The IC50 for each compound was derived from fitting the dose-response % inhibition data to the four-parameter logistic model by Graphpad Prism software.

C-Raf (Y340D/Y341D) = C-Raf (Y340D/Y341D) (Homo sapiens (Human), UniProt P04049, Y340D/Y341D); assay: Raf IC50 assay, time-resolved fluorescence energy transfer, C-Raf (Y340D/Y341D); type: biochemical; conditions: 0.1 mM ATP
Sequence of C-Raf (Y340D/Y341D) (P04049 whole entry Y340D/Y341D): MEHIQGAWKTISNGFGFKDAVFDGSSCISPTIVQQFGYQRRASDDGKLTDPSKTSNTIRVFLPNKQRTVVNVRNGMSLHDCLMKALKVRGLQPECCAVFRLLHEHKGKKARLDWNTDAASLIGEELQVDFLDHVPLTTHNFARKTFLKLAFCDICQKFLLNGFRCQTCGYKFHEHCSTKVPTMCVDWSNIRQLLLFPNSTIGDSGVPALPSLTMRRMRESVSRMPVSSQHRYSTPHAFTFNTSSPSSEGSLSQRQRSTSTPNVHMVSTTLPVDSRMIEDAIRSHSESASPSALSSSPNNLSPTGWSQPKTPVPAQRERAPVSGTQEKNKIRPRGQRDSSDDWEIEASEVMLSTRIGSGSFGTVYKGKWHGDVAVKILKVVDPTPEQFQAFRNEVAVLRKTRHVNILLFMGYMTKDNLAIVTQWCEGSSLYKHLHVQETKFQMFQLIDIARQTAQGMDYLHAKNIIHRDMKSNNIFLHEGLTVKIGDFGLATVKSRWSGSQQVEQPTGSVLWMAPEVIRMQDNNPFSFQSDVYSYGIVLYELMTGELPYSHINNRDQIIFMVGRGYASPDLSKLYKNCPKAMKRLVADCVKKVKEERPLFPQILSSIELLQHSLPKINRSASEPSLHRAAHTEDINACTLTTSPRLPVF
Protocol: The assay was carried out in reactions (10 μL) containing 0.0625 nM B-Raf or 0.5 nM C-Raf, 25 mM Tris pH7.4, 10 mM MgCl2, 0.5 mM EGTA, 0.5 mM Na3VO4, 5 mM beta-glycerophosphate, 0.01% Triton X-100, 2.5 mM DTT, 0.1% BSA, 0.1 mM ATP, 13.7 nM GST-tagged MEK1 (Full-length protein with K97R mutation, recombinant protein purified from bacterial expression system) and 0-5 μM compounds disclosed herein (final concentration of 1% DMSO). The enzyme was incubated with the compounds at room temperature for 60 minutes and the reactions were initiated by the addition of ATP and GST-MEK1. After reaction at room temperature for 60 minutes, an equal volume of stop/detection solution was added according to the manufacture's instruction (CisBio Bioassays). The stop/detection solution contained Eu^3+ cryptate-conjugated anti-phospho MEK1/2 (Ser217/221) rabbit polyclonal antibody and d2-conjugated anti-GST mouse monoclonal antibody in buffer containing 25 mM Tris pH7.4, 400 mM KF, 50 mM EDTA, 0.01% BSA and 0.01% Triton X-100. Plates were sealed and incubated at room temperature for 2 hours, and the TR-FRET signals (ratio of fluorescence emission at 665 nm over emission at 620 nm with excitation at 337 nm wavelength) were recorded on a PHERAstar FS plate reader (BMG Labtech). Phosphorylation of MEK1 led to the binding of anti-phospho-MEK1/2 antibody to GST-MEK1 protein that place fluorescent donor (Eu^3+ crypate) in close proximity to the accepter d2 on the anti-GST antibody, thus resulting in a high degree of fluorescence resonance energy transfer from the donor fluorophore (at 620 nm) to the acceptor fluorophore (at 665 nm). […] The IC50 for each compound was derived from fitting the dose-response % inhibition data to the four-parameter logistic model by Graphpad Prism software.

wild type B-Raf = wild type B-Raf (Homo sapiens (Human), UniProt P15056); assay: WT B-Raf IC50 assay, time-resolved fluorescence energy transfer; type: biochemical
Sequence of wild type B-Raf (P15056 whole entry): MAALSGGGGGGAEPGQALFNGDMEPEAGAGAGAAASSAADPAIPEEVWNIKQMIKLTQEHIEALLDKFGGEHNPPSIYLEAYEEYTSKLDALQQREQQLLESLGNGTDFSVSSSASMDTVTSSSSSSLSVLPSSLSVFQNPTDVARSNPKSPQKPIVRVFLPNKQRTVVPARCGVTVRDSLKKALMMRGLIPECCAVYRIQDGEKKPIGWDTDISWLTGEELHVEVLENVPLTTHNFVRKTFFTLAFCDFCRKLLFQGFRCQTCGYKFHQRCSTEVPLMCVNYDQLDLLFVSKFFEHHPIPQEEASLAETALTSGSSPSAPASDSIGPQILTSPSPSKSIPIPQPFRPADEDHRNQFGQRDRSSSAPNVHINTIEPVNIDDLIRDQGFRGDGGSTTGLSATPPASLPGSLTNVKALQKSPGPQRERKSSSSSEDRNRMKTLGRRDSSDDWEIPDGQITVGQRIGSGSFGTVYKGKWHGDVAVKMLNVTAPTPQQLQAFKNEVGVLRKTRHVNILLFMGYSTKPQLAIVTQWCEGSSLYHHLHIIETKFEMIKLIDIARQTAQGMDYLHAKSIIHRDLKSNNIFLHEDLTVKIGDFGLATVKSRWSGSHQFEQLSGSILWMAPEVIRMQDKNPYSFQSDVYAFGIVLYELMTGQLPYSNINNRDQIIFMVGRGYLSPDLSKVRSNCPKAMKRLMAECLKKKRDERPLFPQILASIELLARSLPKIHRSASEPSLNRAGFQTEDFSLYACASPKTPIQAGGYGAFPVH
Protocol: The IC50 for each compound was calculated by non linear regression by Graphpad Prism software.

A375 = assay: Anti-proliferative activity EC50 assay (CellTiter-Glo) in A375; type: cell-based; conditions: Homo sapiens, A-375, 72 h; 3-day exposure; read-out: Cell Proliferation EC50 (nM) A375
Protocol: (§1) The growth-inhibitory activity of compounds in A375 and p61-A375, was determined using CellTiter-Glo luminescent cell viability assay (Promega). The 2,000 cells were seeded per well of a 96-well plate to ensure logarithmic growth could occur over the 3 days treatment period. Cells were left to attach for 16 hours, cells were treated in duplicate with a 10-point dilution series. Following a 3-day exposure to compounds disclosed herein, a volume of CellTiter-Glo reagent equal to the volume of cell culture medium present in each well was added. Mixture was mixed on an orbital shaker for 2 minutes to allow cell lysis, followed by 10 minutes incubation at room temperature to allow stabilization of luminescent signal, which corresponded to quantitation of ATP and thus the quantitation of metabolically active cells. Luminescent signal was measured using Pherastar FS reader (BMG Labtech).
(§2) EC50 values for growth inhibition were calculated by fitting dose-dependent data to the four-parameter logistic model using GraphPad Prism software.

p61-A375 (pERK) = assay: ERK phosphorylation inhibition IC50 assay in p61-A375; type: cell-based; conditions: 1 hour compound treatment
Protocol: (§3) To express p61 in mammalian cells, cDNA encoding the p61 (Poulikakos et al., Nature. 2011 Nov. 23; 480(7377):387-90) was synthesized by Genscript and cloned into pLVX-IRES-Puro vector (Clontech). The cDNA was a modified form of p61 in which sequencing encoding the flag-epitope had been inserted to the C-terminus, resulting in the expression of flag-tagged forms of protein. A375 cells were stably transfected with the Flag-p61 expressing plasmid and selected with DMEM containing […] puromycin (Invitrogen). Cells were cloned by limiting dilution in a 96-wells plate and the clones screened by western blot analysis using a monoclonal antibody directed against the flag-epitope.
(§4) Growth medium was then replaced with 100 μL of serum free DMEM, cells were then treated with a 10-point titration of compounds disclosed herein. After 1 hour compound treatment, 50 μL of lysis buffer (Cisbio) were added to each well and incubated at room temperature with shaking for 30 minutes. A total of 16 μL of cell lysate from each well of a 96-well plate was transferred to a 384-well small volume white plate. Lysate from each well was incubated with 2 μL of Eu^3+-cryptate (donor) labeled anti-ERK antibody (Cisbio) and 2 μL of D2 (acceptor) labeled anti-phospho-ERK antibody (Cisbio) for 2 hours at room temperature. When donor and acceptor are in close proximity, excitation of the donor with laser triggers a Fluorescence Resonance Energy Transfer (FRET) towards the acceptor, which in turn fluoresces at 655 nm wavelength. Fluorescence values were measured using a BMG reader.
(§5) IC50 values for ERK inhibition were calculated by fitting dose-dependent data to the four-parameter logistic model using GraphPad Prism software.

p61-A375 = assay: Anti-proliferative activity EC50 assay (CellTiter-Glo) in p61-A375; type: cell-based; conditions: 72 h; 3-day exposure; read-out: Cell Proliferation EC50 (nM) p61-A375
Protocol: as §3, §1, §2

Calu-6 (pERK) = assay: ERK phosphorylation inhibition IC50 assay in Calu-6; type: cell-based; conditions: Homo sapiens, 1 hour compound treatment
Protocol: as §4, §5

HeLa (pERK) = assay: ERK phosphorylation inhibition IC50 assay in HeLa; type: cell-based; conditions: Homo sapiens, 1 hour compound treatment
Protocol: as §4, §5

[1] = 2.5 mM ATP, read-out: IC50 (nM) B-Raf^WT 2.5 mM ATP
[2] = Km ATP (2.9 μM ATP), read-out: IC50 (nM) B-Raf^WT Km ATP

Sequence of B-Raf (V600E) (P15056 whole entry V600E): as the sequence (P15056 whole entry) above, with V600E counted along it

| Structure (SMILES) | IC50 (B-Raf (V600E)) | IC50 (C-Raf (Y340D/Y341D)) | IC50 (wild type B-Raf; [1]) | IC50 (wild type B-Raf; [2]) | EC50 (A375) | IC50 (p61-A375 (pERK)) | EC50 (p61-A375) | IC50 (Calu-6 (pERK)) | IC50 (HeLa (pERK)) |
| --- | --- | --- | --- | --- | --- | --- | --- | --- | --- |
| O=C1CCc2c(Oc3ccc4c(c3)[C@H]3[C@H](NC(=O)Nc5cccc(C(F)(F)F)c5F)[C@H]3O4)ccnc2N1 [Compound 1.12] | 4.7 nM | 1.1 nM | 86 nM | 23 nM | 106 nM |  |  |  |  |
| O=C1CCc2c(Oc3ccc4c(c3)[C@H]3[C@H](NC(=O)Nc5ccccc5F)[C@H]3O4)ccnc2N1 [Compound 1.21] | 1.1 nM | 0.066 nM | 2.5 nM | 0.87 nM | 128 nM |  |  |  |  |
| O=C1CCc2c(Oc3ccc4c(c3)[C@H]3[C@H](NC(=O)Nc5cccc(F)c5)[C@H]3O4)ccnc2N1 [Compound 1.22] | 1.3 nM | 0.18 nM | 4.2 nM | 1.7 nM | 87 nM |  |  |  |  |
| O=C1CCc2c(Oc3ccc4c(c3)[C@H]3[C@H](NC(=O)Nc5cc(F)cc(F)c5)[C@H]3O4)ccnc2N1 [Compound 1.23] | 1.8 nM | 0.3 nM | 12 nM | 3.7 nM | 109 nM | 253 nM | 479 nM | 101 nM | 189 nM |
| Cc1cc(NC(=O)N[C@@H]2[C@H]3Oc4ccc(Oc5ccnc6c5CCC(=O)N6)cc4[C@@H]23)ccc1F [Compound 1.24] | 1.5 nM | 0.37 nM | 7.7 nM | 2.7 nM | 25 nM |  |  |  |  |
| O=C1CCc2c(Oc3ccc4c(c3)[C@H]3[C@H](NC(=O)Nc5ccc(Cl)c(C(F)(F)F)c5)[C@H]3O4)ccnc2N1 [Compound 1.25] | 27 nM | 2.3 nM |  | 33 nM | 25 nM |  |  |  |  |
| O=C1CCc2c(Oc3ccc4c(c3)[C@H]3[C@H](NC(=O)Nc5ccc(Cl)c(Cl)c5)[C@H]3O4)ccnc2N1 [Compound 1.28] | 5.5 nM | 0.77 nM | 49 nM | 16 nM | 40 nM |  |  |  |  |
| O=C1CCc2c(Oc3ccc4c(c3)[C@H]3[C@H](NC(=O)Nc5ccc(F)c(C(F)(F)F)c5)[C@H]3O4)ccnc2N1 [Compound 1.32] | 7.7 nM | 1.2 nM | 58 nM | 17 nM | 55 nM | 433 nM | 527 nM | 301 nM | 536 nM |
| O=C1CCc2c(Oc3ccc4c(c3)[C@H]3[C@H](NC(=O)Nc5ccc(F)cc5F)[C@H]3O4)ccnc2N1 [Compound 1.35] | 0.59 nM | 0.25 nM | 4.1 nM | 1 nM | 143 nM | 314 nM | 1130 nM | 75 nM | 610 nM |
| O=C1CCc2c(Oc3ccc4c(c3)[C@H]3[C@H](NC(=O)Nc5ccc(F)cc5)[C@H]3O4)ccnc2N1 [Compound 1.41] | 0.8 nM | 0.15 nM |  | 0.57 nM | 65 nM |  |  |  |  |
| O=C1CCc2c(Oc3ccc4c(c3)[C@H]3[C@H](NC(=O)Nc5cccc(F)c5F)[C@H]3O4)ccnc2N1 [Compound 1.42] | 0.94 nM | 0.24 nM |  | 1.5 nM | 178 nM |  |  |  |  |
| O=C1CCc2c(Oc3ccc4c(c3)[C@H]3[C@H](NC(=O)Nc5cc(F)ccc5F)[C@H]3O4)ccnc2N1 [Compound 1.43] | 1.2 nM | 0.26 nM | 5.9 nM | 2.1 nM | 96 nM |  |  |  |  |
| O=C1CCc2c(Oc3ccc4c(c3)[C@H]3[C@H](NC(=O)Nc5c(F)cccc5F)[C@H]3O4)ccnc2N1 [Compound 1.44] | 1.3 nM | 0.21 nM |  | 1.9 nM | 702 nM |  |  |  |  |
| O=C1CCc2c(Oc3ccc4c(c3)[C@H]3[C@H](NC(=O)Nc5ccc(F)c(F)c5F)[C@H]3O4)ccnc2N1 [Compound 1.46] | 0.78 nM | 0.22 nM | 6 nM | 1.7 nM | 109 nM |  |  |  |  |
| O=C1CCc2c(Oc3ccc4c(c3)[C@H]3[C@H](NC(=O)Nc5cc(F)c(F)c(F)c5)[C@H]3O4)ccnc2N1 [Compound 1.47] | 4.1 nM | 0.53 nM | 23 nM | 6.4 nM | 140 nM |  |  |  |  |
| O=C1CCc2c(Oc3ccc4c(c3)[C@H]3[C@H](NC(=O)NC5CCCCCC5)[C@H]3O4)ccnc2N1 [Compound 1.52] | 1.4 nM | 0.25 nM |  | 1.7 nM | 47.7 nM | 173 nM |  | 411 nM | 5430 nM |
| O=C1CCc2c(Oc3ccc4c(c3)[C@H]3[C@H](NC(=O)Nc5cc(F)cc(F)c5F)[C@H]3O4)ccnc2N1 [Compound 1.53] | 2.9 nM |  |  |  | 77 nM |  | 1320 nM |  |  |
| O=C1CCc2c(Oc3ccc4c(c3)[C@H]3[C@H](NC(=O)NC5CCCCC5)[C@H]3O4)ccnc2N1 [Compound 1.66] | 2.3 nM | 0.25 nM |  | 2.3 nM | 101 nM |  |  |  |  |
| CCN1CCN(Cc2ccc(NC(=O)N[C@@H]3[C@H]4Oc5ccc(Oc6ccnc7c6CCC(=O)N7)cc5[C@@H]34)cc2C(F)(F)F)CC1 [Compound 1.73, 1-(4-((4-ethylpiperazin-1-yl)methyl)-3-(trifluoromethyl)phenyl)-3-((1S,1aS,6bS)-5-((7-oxo-5,6,7,8-tetrahydro-1,8-naphthyridin-4-yl)oxy)-1a,6b-dihydro-1H-cyclopropa[b]benzofuran-1-yl)urea] | 13 nM | 0.84 nM |  | 13 nM | 1330 nM |  |  |  |  |
| COc1cc(NC(=O)N[C@@H]2[C@H]3Oc4ccc(Oc5ccnc6c5CCC(=O)N6)cc4[C@@H]23)ccn1 [Compound 1.75, 1-(2-methoxypyridin-4-yl)-3-((1S,1aS,6bS)-5-((7-oxo-5,6,7,8-tetrahydro-1,8-naphthyridin-4-yl)oxy)-1a,6b-dihydro-1H-cyclopropa[b]benzofuran-1-yl)urea] | 2.2 nM | 0.27 nM |  | 2.4 nM | 405 nM |  |  |  |  |
| CCCS(=O)(=O)Nc1ccc(F)c(C(=O)c2c[nH]c3ncc(-c4ccc(Cl)cc4)cc23)c1F [Vemurafenib, reference compound] |  |  |  |  | 178 nM | > 10000 nM | > 10000 nM | > 10000 nM | 5820 nM |
